Counter-ions that a name gives are not always drawn.

As to `Cc1ccc(C[C@@H]2CN(CC#CCN3CCSCC3)CCN2C(=O)c2cc(Cl)cc(Cl)c2)cc1C.Cl.Cl`, the melting point – broadly, the temperature, or range, at which the solid turns liquid – was 128 °C (dec.).
Under `COC[C@H]1CCCN1CC#CCN1CCN(C(=O)c2cc(C(F)(F)F)cc(C(F)(F)F)c2)[C@H](Cc2c[nH]c3ccccc23)C1.Cl.Cl` stands 190 to 195 °C; under `Cc1ccc(C[C@@H]2CN(CC#CCN3CCOC[C@@H]3CO)CCN2C(=O)c2cc(C(F)(F)F)cc(C(F)(F)F)c2)cc1C.Cl.Cl`, 130 to 150 °C.
`Cc1ccc(C[C@@H]2CN(C/C=C\c3cccnc3)CCN2C(=O)c2cc(C(F)(F)F)cc(C(F)(F)F)c2)cc1C.Cl.Cl` showed a melting point of 170 to 174 °C.
Under `COc1ccncc1C#CCN1CCN(C(=O)c2cc(C(F)(F)F)cc(C(F)(F)F)c2)[C@H](Cc2c[nH]c3ccccc23)C1.Cl.Cl` stands 162 to 167 °C; under `COc1ccc(CCCN2CCN(C(=O)c3cc(C(F)(F)F)cc(C(F)(F)F)c3)[C@H](Cc3ccc(C)c(C)c3)C2)cn1.Cl.Cl`, 127 to 137 °C.
Next, `COC[C@@H]1COCCN1CCN1CCN(C(=O)c2cc(C(F)(F)F)cc(C(F)(F)F)c2)[C@H](Cc2c[nH]c3ccccc23)C1.Cl.Cl`: 130 to 150 °C; `Cc1ccc(C[C@@H]2CN(CCCc3ccccn3)CCN2C(=O)c2cc(C(F)(F)F)cc(C(F)(F)F)c2)cc1C.Cl.Cl`: 120 to 130 °C; `COc1ccc(C#CCN2CCN(C(=O)c3cc(C(F)(F)F)cc(C(F)(F)F)c3)[C@H](Cc3ccc(C)c(C)c3)C2)cn1.Cl.Cl`: 160 to 170 °C.
Under `CC[C@@H]1COCCN1CC#CCN1CCN(C(=O)c2cc(C(F)(F)F)cc(C(F)(F)F)c2)[C@H](Cc2c[nH]c3ccccc23)C1.Cl.Cl` stands 176 to 180 °C.
In turn, `COc1ccncc1CCCN1CCN(C(=O)c2cc(C(F)(F)F)cc(C(F)(F)F)c2)[C@H](Cc2ccc(C)c(C)c2)C1.Cl.Cl` returned a melting point of 159 to 168 °C.
Next, `Cc1ccc(C[C@@H]2CN(CC#CCN3CCOC[C@@H]3CC(C)C)CCN2C(=O)c2cc(C(F)(F)F)cc(C(F)(F)F)c2)cc1C.Cl.Cl`: 125 to 138 °C.
As for `Cl.Cl.Nc1ccc(C#CCN2CCN(C(=O)c3cc(C(F)(F)F)cc(C(F)(F)F)c3)[C@H](Cc3c[nH]c4ccccc34)C2)cn1`, the melting point lay in the range of 190 to 195 °C.
Under `Cl.Cl.O=C(c1cc(C(F)(F)F)cc(C(F)(F)F)c1)N1CCN(CC#Cc2ccccn2)C[C@H]1Cc1c[nH]c2ccccc12` stands 160 to 166 °C; under `Cl.Cl.O=C(c1cc(C(F)(F)F)cc(C(F)(F)F)c1)N1CCN(CC#Cc2cccnc2)C[C@H]1Cc1c[nH]c2ccccc12`, 180 to 190 °C; under `COC[C@@H]1COCCN1C/C=C/CN1CCN(C(=O)c2cc(C(F)(F)F)cc(C(F)(F)F)c2)[C@H](Cc2ccc(C)c(C)c2)C1.Cl.Cl`, 240 to 250 °C.
The molecule `CNc1cccc(CC2CN(CC#CCN3CCOCC3(C)C)CCN2C(=O)c2cc(C(F)(F)F)cc(C(F)(F)F)c2)c1` (stereo not drawn) (as salt: hydrochloride) [Example 93, 1-[3,5-Bis(trifluoromethyl)benzoyl]-4-[4-(3,3-dimethylmorpholino)-2-butynyl]-2-[3-(N-methylamino)benzyl]piperazine] showed a melting point of 192 to 195 °C.
Next, `Cl.Cl.O=C(c1cc(Cl)cc(Cl)c1)N1CCN(CC#CCN2CCOCC2)C[C@H]1Cc1ccc(C(F)(F)F)cc1`: 186 °C (dec.); `Cc1ccc(C[C@@H]2CN(CC#CCN3CCOC[C@H]3C(=O)N(C)C)CCN2C(=O)c2cc(C(F)(F)F)cc(C(F)(F)F)c2)cc1C.Cl.Cl`: 150 to 160 °C; `C[C@H]1COC[C@H](C)N1CCN1CCN(C(=O)c2cc(C(F)(F)F)cc(C(F)(F)F)c2)[C@H](Cc2c[nH]c3ccccc23)C1.Cl.Cl`: 170 to 180 °C.
`Cl.Cl.O=C(c1cc(C(F)(F)F)cc(C(F)(F)F)c1)N1CCN(CCCCc2cccnc2)C[C@H]1Cc1c[nH]c2ccccc12` showed a melting point of 140 to 145 °C.
Under `Cl.Cl.O=C(c1cc(Cl)cc(Cl)c1)N1CCN(CC#CCN2CCSCC2)C[C@H]1Cc1c[nH]c2ccccc12` stands 175 °C (dec.); under `Cl.Cl.O=C(c1cc(Cl)cc(Cl)c1)N1CCN(CC#CCN2CCSCC2)C[C@H]1Cc1ccc(C(F)(F)F)cc1`, 172 °C (dec.); under `COc1ccc(CCCN2CCN(C(=O)c3cc(C(F)(F)F)cc(C(F)(F)F)c3)[C@H](Cc3c[nH]c4ccccc34)C2)cn1.Cl.Cl`, 195 to 200 °C.
Regarding `COC[C@H]1COCCN1CCN1CCN(C(=O)c2cc(C(F)(F)F)cc(C(F)(F)F)c2)[C@H](Cc2c[nH]c3ccccc23)C1.Cl.Cl`, the melting point lay in the range of 175 to 185 °C.
Next, `Cc1ccc(C[C@@H]2CN(Cc3cnn(CC(=O)O)c3)CCN2C(=O)c2cc(C(F)(F)F)cc(C(F)(F)F)c2)cc1C` [Example 47, (2R)-1-[3,5-bis(trifluoromethyl)benzoyl]-4-[[1-(carboxymethyl)-1H-pyrazol-4-yl]methyl]-2-(3,4-dimethylbenzyl)piperazine]: 223 to 230 °C; `CCOC[C@H]1COCCN1CC#CCN1CCN(C(=O)c2cc(C(F)(F)F)cc(C(F)(F)F)c2)[C@H](Cc2ccc(C)c(C)c2)C1.Cl.Cl`: 155 to 160 °C.
Under `CNc1cc(C(=O)N2CCN(CC#CCN3CCOCC3(C)C)C[C@H]2Cc2c[nH]c3ccccc23)cc(C(F)(F)F)c1.Cl.Cl` stands 215 to 230 °C.
Next, `Cc1ccc(C[C@@H]2CN(CC#Cc3ccc(N)nc3)CCN2C(=O)c2cc(C(F)(F)F)cc(C(F)(F)F)c2)cc1C.Cl.Cl`: 183 to 189 °C.
For the molecule `Cl.Cl.O=C(c1cc(Cl)cc(Cl)c1)N1CCN(CC#CCN2CCOCC2)C[C@H]1Cc1c[nH]c2ccccc12`, the melting point is 165 °C (dec.).
Under `COc1cccc(CC2CN(CC#CCN3CCOCC3(C)C)CCN2C(=O)c2cc(C(F)(F)F)cc(C(F)(F)F)c2)c1OC.Cl.Cl` (stereo not drawn) stands 170 °C.
Next, `Cl.Cl.O=C(c1cc(C(F)(F)F)cc(C(F)(F)F)c1)N1CCN(CCCc2cccnc2)C[C@H]1Cc1ccc2ccccc2c1`: 138 to 148 °C; `Cc1ccc(C[C@@H]2CN(CCCn3cccn3)CCN2C(=O)c2cc(C(F)(F)F)cc(C(F)(F)F)c2)cc1C.Cl`: 73 to 75 °C; `Cl.Cl.O=C(c1cc(Cl)cc(Cl)c1)N1CCN(CC#CCN2CCOCC2)C[C@H]1Cc1ccc2ccccc2c1`: 171 °C (dec.).
Next, `COc1ccncc1C#CCN1CCN(C(=O)c2cc(C(F)(F)F)cc(C(F)(F)F)c2)[C@H](Cc2ccc(C)c(C)c2)C1.Cl.Cl`: 150 to 153 °C.
On to `Cl.Cl.O=C(c1cc(C(F)(F)F)cc(C(F)(F)F)c1)N1CCN(CCCc2cccnc2)C[C@H]1Cc1c[nH]c2ccccc12`, for which the melting point is 150 to 160 °C.
Under `CN(C)c1cccc(CC2CN(CC#CCN3CCOCC3(C)C)CCN2C(=O)c2cc(C(F)(F)F)cc(C(F)(F)F)c2)c1.Cl.Cl.Cl` (stereo not drawn) stands 205 to 210 °C; under `Cl.Cl.O=C(c1cc(C(F)(F)F)cc(C(F)(F)F)c1)N1CCN(CCCCc2ccccn2)C[C@H]1Cc1c[nH]c2ccccc12`, 155 to 160 °C; under `COc1ccc(C#CCN2CCN(C(=O)c3cc(C(F)(F)F)cc(C(F)(F)F)c3)[C@H](Cc3c[nH]c4ccccc34)C2)cn1.Cl.Cl`, 183 to 189 °C.
Next, `COCC1CN(CCN2CCN(C(=O)c3cc(C(F)(F)F)cc(C(F)(F)F)c3)[C@H](Cc3ccc(C)c(C)c3)C2)CCO1.Cl.Cl` (stereo partly drawn): 150 to 154 °C; `COC[C@@H]1COCCN1CCCN1CCN(C(=O)c2cc(C(F)(F)F)cc(C(F)(F)F)c2)[C@H](Cc2ccc(C)c(C)c2)C1.Cl.Cl`: 80 to 100 °C.
Next, `Cl.Cl.O=C(c1cc(C(F)(F)F)cc(C(F)(F)F)c1)N1CCN(C/C=C\c2cccnc2)C[C@H]1Cc1ccc2ccccc2c1`: 130 to 150 °C; `Cl.Cl.O=C(c1cc(C(F)(F)F)cc(C(F)(F)F)c1)N1CCN(CC#Cc2cccnc2)C[C@H]1Cc1ccc2ccccc2c1`: 140 to 150 °C; `COc1ccncc1CCCN1CCN(C(=O)c2cc(C(F)(F)F)cc(C(F)(F)F)c2)[C@H](Cc2c[nH]c3ccccc23)C1.Cl.Cl`: 165 to 170 °C.
In turn, `Cl.Cl.O=C(c1cc(C(F)(F)F)cc(C(F)(F)F)c1)N1CCN(CCC#Cc2cccnc2)C[C@H]1Cc1c[nH]c2ccccc12` showed a melting point of 175 to 185 °C.

These data come from patent US6924278B2, “Aroyl-piperazine derivatives, their preparation and their use as tachykinin antagonists” (Fujisawa Pharmaceutical Co., Ltd., priority 1997, dated 2005).
